Data set [1] in a line: Microsomal metabolic stability. The class given is in vitro ADME. Particulars: human liver microsomes 0.5 mg/mL, 1 μM, 37 °C. How it is done: Microsomal Metabolic Stability (human liver microsomes): Human liver microsomes (final protein concentration 0.5 mg/mL), 0.1 M phosphate buffer pH 7.4 and test compound MD20 (final substrate concentration 1 μM; final DMSO concentration 0.25%) were pre-incubated at 37 °C prior to the addition of NADPH (final concentration 1 mM) to initiate the reaction. A minus cofactor control incubation was included for each compound tested where 0.1 M phosphate buffer pH 7.4 was substituted for NADPH (“minus NADPH”).
Each compound was incubated for 0, 5, 15, 30 and 45 min. The control (minus NADPH) was incubated for 45 min only. The reactions were stopped by transferring incubate in to acetonitrile at the appropriate time points, in a 1:3 ratio. The termination plates were centrifuged at 3,000 rpm for 20 min at 4 °C to precipitate the protein. Following protein precipitation, the sample supernatants were combined in cassettes of up to 4 compounds, internal standard was added and samples were analyzed using Cyprotex generic LC-MS/MS conditions. The time point at which 30-70% of parent had degraded was then investigated at 3 different levels of metabolite profiling and/or identification. The intrinsic clearance (CLint) of the test compound was calculated.
(Liver microsomes are vesicles of endoplasmic reticulum, rich in cytochrome P450 enzymes.)

For data set [2], the system named is HFD-fed mice. Nature of the data set: High-fat diet-induced obesity and type 2 diabetes model. It counts as in vivo, mouse. Particulars: 30 mg/kg IP daily, 7 weeks. The source says: Animals: All animals were housed and tested following European (Directive on the Protection of Animals used for Scientific Purposes, 2010/63/EU) and UK Home Office regulations. Experiments were approved by the University Ethics Board and carried out in accordance with the Animal (Scientific Procedures) Act 1986 and following ARRIVE guidelines. C57BL/6 male mice (~3-4 months) were purchased from Charles River, UK. All mice received high fat and cholesterol diet (42% fat plus 0.2% cholesterol, #TD.88137, Envigo, US) to induce experimental type 2 diabetes and obesity phenotype. All mice had ad libitum access to food and water and were kept in a 12 h light/dark cycle.
Briefly, after 8 weeks of high fat/high cholesterol diet feeding, mice were counterbalanced according to their body weight in to control (n=10) or MD20 30 mg/kg (n=10) groups. MD20 compound (30 mg/kg) was administered once daily via intraperitoneal (IP) injection for 7 weeks, whereas control mice received daily IP injection of vehicle (PBS). MD20 was kept at −20 °C and dissolved in sterile phosphate buffered saline (PBS) freshly every day before the injection. Three mice died during the study, and the final number of animals was: control (n=9) and MD20 30 mg/kg (n=8).
Bodyweights and body mass composition: Bodyweights were recorded during the study. Fat mass and lean mass composition were analysed using an EchoMRI scanner (EchoMedical Systems, Houston, TX, U.S.A.).
Metabolic measurements: All animals were 5 h-fasted before metabolic testing. Tail blood glucose was measured using AlphaTRAK 2 glucose strips and glucometer (Abbot, UK). Glucose tolerance tests (GTT) and insulin tolerance tests (ITT) were performed by IP injection of 2 mg/g of glucose (GTT) or 0.6 mU/g insulin (ITT), and glucose levels were measured at 15, 30, 60 and 90 min post-injection.
Serum and liver assays: Trunk-derived blood was collected from 5 h-fasted mice into serum separator microtubes and kept at −80 °C. Serum was used for insulin (#EZRMI-13K, Merck), leptin (#90030, Crystal Chem), free fatty acids (FFA; #mak044, Sigma-Aldrich), cholesterol (#MAK043, Sigma Aldrich), alanine, and aspartate aminotransferase (ALT and AST; ab105134 and ab105135, Abcam) analyses. Serum and liver triglycerides were determined using triglyceride reagents (#T2449, #F6428, #G7793, Sigma Aldrich).
Statistical analyses: Data were reported as means±SEM and analysed using one- or two-way ANOVA with Bonferroni post hoc tests, as appropriate. GraphPad Prism (V8, GraphPad Software, Inc., San Diego, California, USA) was used for statistical analyses. P-values <0.05 were considered significant.

Regarding Ac-PRPPKR-NH2 [MD20, Ac-PRPPKR-NH2], the “intrinsic clearance (CL int)” value in data set [1] was determined as 4.90. For the same substance, in data set [2], the “fasted basal glucose levels” value is recorded as “No significant differences”, the fasted serum cholesterol entry is recorded as “No significant differences”, the “fasted serum free fatty acids” value is reported as “No significant differences” and the fasted serum insulin entry is recorded as “No significant differences”. In data set [2], the fasted serum leptin entry is on record as “No significant differences”, the hepatic toxicity result was “most likely did not induce hepatic toxicity”, the liver triglycerides result is “No significant differences” and the “serum ALT” value is “No significant differences”. Besides, in data set [2], the “serum AST” value is reported as “No significant differences” and the serum triglycerides entry is listed as “No significant differences”. In addition, in data set [2] (vs control), the body weight gain entry is given as “inhibited body weight gain” and the fat mass gain entry was “inhibited fat mass gain”. Besides, the “glucose tolerance test (GTT)” value in data set [2] (2 mg/g glucose) is reported as “No significant differences”. Also, in data set [2] (0.6 mU/g insulin), the “insulin sensitivity during ITT” value is reported as “improved insulin sensitivity during ITT”.

Source of the values: patent US20260365696A1, “INHIBITORS OF PTP1B / NCK1 INTERACTION AND METHODS OF MAKING AND USING SAME” (Radella Pharmaceuticals LLC, priority 2023, published 2026).
